Test systems include A549 NSCLC; COLO 205 colon; HS 578T breast; NCI-H460 lung; OVCAR-3 ovarian; OVCAR-5 ovarian; SN12C renal; SW-620 colon; HCC-2998 colon; MDA-MB-231 breast.
Common to all, as to experiment: NCI-60 cell line screen, 48 h

Converted amounts (≈) assume the structure as drawn. “And” between values parts separate entries of the source, which are not always exact repeats. Equal entries are not always repeated.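 Method: 48-hour compound exposure of cells in 96-well plates, five concentrations, linear interpolation of endpoints. GI50: concentration for 50% inhibition of growth. The concentration for full growth arrest is given as TGI.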

From PubChem BioAssay (NCI) come the findings set out here.

Take `O=c1c2cc(S(=O)(=O)O)ccc2nc(COc2ccc(Oc3ccc(Cl)cc3Cl)cc2)n1-c1ccc(Cl)cc1Oc1c(Cl)cccc1Cl`: the TGI with A549 NSCLC stood at 72.1 µM; in the test with COLO 205 colon it was 32.1 µM; with HS 578T breast, 76.3 µM; in the test on NCI-H460 lung, 46.5 µM; with OVCAR-3 ovarian it was 61.1 µM; in the test on OVCAR-5 ovarian, 60.6 µM. The TGI with SN12C renal was determined as 99.4 µM; in the test with SW-620 colon, 79.6 µM.

For the compound `N#Cc1nc(C2=C(Cl)c3ccccc3OC2)[nH]c1C#N`, the TGI in the test on A549 NSCLC was over 100 µM; with HCC-2998 colon, 61.8 µM; in the test with HS 578T breast it was over 100 µM; in the test with NCI-H460 lung, 75.4 µM; with OVCAR-3 ovarian, 70.9 µM; in the test with OVCAR-5 ovarian, over 100 µM. For the same compound, the TGI in the test on SN12C renal and with SW-620 colon was over 100 µM throughout.

With `COc1cc(O)c2c(c1)OCC(Cc1ccc(O)cc1)C2=O` (stereo not drawn), the TGI in the test with A549 NSCLC, with COLO 205 colon, in the test with HS 578T breast, in the test on MDA-MB-231 breast, in the test with NCI-H460 lung and in the test with OVCAR-3 ovarian was over 100 µM throughout. Moreover, the TGI in the test on OVCAR-5 ovarian, with SN12C renal and in the test with SW-620 colon was over 100 µM throughout.

Take `O=c1[nH]nc(Cc2ccccc2)[nH]1`: the TGI in the test with A549 NSCLC, in the test on COLO 205 colon, in the test on HCC-2998 colon, with HS 578T breast, in the test with NCI-H460 lung and in the test with OVCAR-3 ovarian was over 100 µM each time. Moreover, the TGI with OVCAR-5 ovarian, in the test on SN12C renal and in the test on SW-620 colon was over 100 µM each time.

For `NNc1nncc2n[nH]nc12`, the TGI in the test on A549 NSCLC, in the test with COLO 205 colon, in the test on HS 578T breast, in the test on MDA-MB-231 breast, in the test with NCI-H460 lung and with OVCAR-3 ovarian was over 100 µM each time. Further, the TGI in the test on OVCAR-5 ovarian, in the test on SN12C renal and with SW-620 colon was over 100 µM in each case.

As to `CC(C)=CC(=O)C[C@H]1C(=O)O[C@@H]2C[C@H]3C(C)=CC(=O)[C@@H](O)[C@]3(C)[C@H]3[C@@]4(O)OC[C@]32[C@@H]1[C@@H](C)[C@H]4O`, the TGI came out at 0.368 µM with HCC-2998 colon; 0.258 µM with HS 578T breast; 0.381 µM in the test with MDA-MB-231 breast; 0.743 µM in the test with NCI-H460 lung; 0.166 µM with OVCAR-3 ovarian; 6.26 µM in the test on SW-620 colon.

Regarding `Cc1ccc(S(=O)(=O)OC(c2ccc(Cl)cc2Cl)C2OC(=O)c3ccccc32)cc1` (stereo not drawn), the TGI in the test with A549 NSCLC, in the test with COLO 205 colon, with NCI-H460 lung, in the test with OVCAR-3 ovarian, in the test with OVCAR-5 ovarian and in the test with SN12C renal was over 100 µM each time. This compound gave a TGI in the test with SW-620 colon of over 100 µM.

Consider `CSC1=N/C(=C\c2ccccc2)C(=O)N1CN1CCCCC1`, for which the TGI in the test with A549 NSCLC, in the test with COLO 205 colon, with HS 578T breast, with MDA-MB-231 breast, in the test on OVCAR-3 ovarian and in the test on OVCAR-5 ovarian was over 100 µM in each case. For the same compound, the TGI in the test with SN12C renal and in the test on SW-620 colon was over 100 µM each time.

Consider `CC1ON2CCCC2[C@H]1C(=O)N1C2CC3CCC2(CS1(=O)=O)C3(C)C` (stereo partly drawn), for which the TGI with A549 NSCLC, with COLO 205 colon, with HS 578T breast, with MDA-MB-231 breast, in the test on NCI-H460 lung and with OVCAR-3 ovarian was over 100 µM each time. For the same compound, the TGI with OVCAR-5 ovarian, in the test on SN12C renal and in the test with SW-620 colon was over 100 µM throughout.

Consider `CCOC(=O)C1(C(=O)OCC)C[C@H](C)[C@](C)(O)C1`, for which the TGI in the test with A549 NSCLC, with COLO 205 colon, in the test on HS 578T breast, in the test with MDA-MB-231 breast, in the test on NCI-H460 lung and with OVCAR-3 ovarian was over 100 µM throughout. Further, the TGI with OVCAR-5 ovarian, in the test on SN12C renal and in the test with SW-620 colon was over 100 µM in each case.

For the compound `NC(=S)Nc1ccc(S(=O)(=O)Nc2ccc(S(N)(=O)=O)cc2)cc1`, the TGI with A549 NSCLC, in the test with COLO 205 colon, in the test on MDA-MB-231 breast, with NCI-H460 lung, with OVCAR-3 ovarian and in the test with OVCAR-5 ovarian was over 100 µM in each case. In addition, the TGI in the test with SN12C renal and in the test with SW-620 colon was over 100 µM each time.

Regarding `C=C(C)C(=O)OC1CCC2(C)C(CCC3C2CCC2(C)C(c4ccc(=O)oc4)CC4OC432)C1` (stereo not drawn), the TGI amounted to 25.4 µM in the test with A549 NSCLC; 22.8 µM with COLO 205 colon; 17.8 µM in the test on HCC-2998 colon; 7.99 µM in the test with NCI-H460 lung; 15.1 µM with OVCAR-3 ovarian; 106 µM with OVCAR-5 ovarian. Besides, the TGI with SN12C renal was found to be 24.1 µM; in the test on SW-620 colon it was 25.1 µM.

`O=C1NN(C2=NNC3(C(=O)N2)c2ccccc2-c2ccccc23)C(c2ccccc2)=N/C1=C/c1ccc(O)cc1`: the GI50 in the test on A549 NSCLC was 74.7 µg/mL (≈ 142 µM); with COLO 205 colon it was over 150 µg/mL; with HS 578T breast it was 50.4 µg/mL; with MDA-MB-231 breast, 26.2 µg/mL; in the test with NCI-H460 lung, 57.6 µg/mL (≈ 109 µM); in the test on OVCAR-3 ovarian it was 55.1 µg/mL. For the same compound, the GI50 was over 150 µg/mL with OVCAR-5 ovarian, 74.2 µg/mL (≈ 141 µM) with SN12C renal and 82.5 µg/mL in the test on SW-620 colon. For the same compound, the TGI was over 150 µg/mL in the test on A549 NSCLC; over 150 µg/mL in the test on COLO 205 colon; over 150 µg/mL in the test on HS 578T breast; 71.7 µg/mL in the test on MDA-MB-231 breast; over 150 µg/mL in the test with NCI-H460 lung; over 150 µg/mL in the test with OVCAR-3 ovarian. Besides, the TGI with OVCAR-5 ovarian, in the test with SN12C renal and with SW-620 colon was over 150 µg/mL in each case.

Turning to `Clc1ccccc1/C=C/c1cscn1`, the TGI with HCC-2998 colon, in the test on NCI-H460 lung, in the test with OVCAR-3 ovarian, in the test on OVCAR-5 ovarian and in the test with SN12C renal was over 100 µM in each case.

Consider `CN(C)CCCN1c2ccccc2Sc2cnccc21`, for which the TGI in the test on A549 NSCLC, with COLO 205 colon, in the test with HS 578T breast, with MDA-MB-231 breast, in the test with NCI-H460 lung and in the test with OVCAR-3 ovarian was over 100 µM each time. Also, the TGI with OVCAR-5 ovarian, with SN12C renal and in the test on SW-620 colon was over 100 µM throughout.

`O=C1C=CC=C/C1=C1\N=C(c2ccccc2OCC(=O)c2ccc(Br)cc2)SS1`: the TGI with A549 NSCLC was over 100 µM; in the test on COLO 205 colon it was over 100 µM; with HCC-2998 colon it was over 100 µM; in the test with HS 578T breast, 76.2 µM; with NCI-H460 lung, over 100 µM; in the test with OVCAR-3 ovarian it was over 100 µM. Moreover, the TGI with OVCAR-5 ovarian, in the test with SN12C renal and with SW-620 colon was over 100 µM in each case.

As for `CCc1c(C)c(C#N)c(=S)n(C2OC(COC(C)=O)C(OC(C)=O)C(OC(C)=O)C2OC(C)=O)c1C` (stereo not drawn), the TGI is over 100 µM in the test on A549 NSCLC; over 100 µM in the test on COLO 205 colon; over 100 µM in the test on HCC-2998 colon; > 100 µM and 73.9 µM in the test on MDA-MB-231 breast; over 100 µM with NCI-H460 lung; over 100 µM in the test on OVCAR-3 ovarian. In addition, the TGI with OVCAR-5 ovarian, in the test with SN12C renal and in the test on SW-620 colon was over 100 µM in each case. The GI50 in the test on MDA-MB-231 breast was > 100 µM and 13 µM; in the test on OVCAR-5 ovarian, > 100 µM and 45.9 µM.

Take `CN1C2CCC1CC(CCNC(c1ccccc1)c1ccccc1)C2` (stereo not drawn): the TGI with A549 NSCLC was over 100 µM; with COLO 205 colon, 23.6 µM; in the test on HS 578T breast, over 100 µM; in the test with MDA-MB-231 breast it was 72.4 µM; with NCI-H460 lung it was over 100 µM; in the test on OVCAR-3 ovarian, over 100 µM. Moreover, the TGI in the test with OVCAR-5 ovarian, with SN12C renal and with SW-620 colon was over 100 µM throughout.

Regarding `Cc1[nH]n(C2=NCCN2)c(=O)c1Cc1ccccc1`, the TGI in the test on A549 NSCLC, in the test on COLO 205 colon, in the test with HS 578T breast, with MDA-MB-231 breast, in the test on NCI-H460 lung and in the test with OVCAR-3 ovarian was over 100 µM throughout. Further, the TGI in the test with OVCAR-5 ovarian and in the test with SW-620 colon was over 100 µM in each case.

For `COc1cc(/C=C2\CCCC3=C2NC(C)=NC3c2cc(OC)c(OC)c(OC)c2)cc(OC)c1OC` (stereo not drawn), the GI50 in the test with HS 578T breast was 5.16 µM; in the test on MDA-MB-231 breast, 3.01 µM; in the test with OVCAR-3 ovarian it was 2.65 µM; in the test with OVCAR-5 ovarian, 3.54 µM; in the test on SW-620 colon, 1.45 µM. The TGI in the test on HS 578T breast, in the test on MDA-MB-231 breast, in the test with OVCAR-3 ovarian, in the test on OVCAR-5 ovarian and with SW-620 colon was over 100 µM in each case.

Consider `CC(=O)N[C@@H](Cc1ccc(O)cn1)C(=O)NCc1cccc(Cl)c1`, for which the TGI in the test with A549 NSCLC, in the test on COLO 205 colon, with HCC-2998 colon, in the test on HS 578T breast, in the test on NCI-H460 lung and in the test with OVCAR-3 ovarian was over 100 µM each time. Further, the TGI in the test with OVCAR-5 ovarian, in the test with SN12C renal and in the test with SW-620 colon was over 100 µM each time.

In the case of `CC(C)Oc1ccc2c(c1)OCC1Cc3ccccc3OC21` (stereo not drawn), the TGI with A549 NSCLC, with HCC-2998 colon, in the test on MDA-MB-231 breast, in the test on OVCAR-3 ovarian, in the test with OVCAR-5 ovarian and with SN12C renal was over 100 µM in each case. This compound returned a TGI with SW-620 colon of over 100 µM.
